Earlier results, collected in publication PMC10036820, “In vivo evaluation of integrin αvβ6-targeting peptide in NSCLC and brain metastasis” (Frontiers in Oncology, 2023).

Tests used:
[1] = system: HNSCC primary tumor and lymph node metastases; parameters: method as in PMID 29674419; conditions: PET/CT, patient with HNSCC; ref [16]
integrin αvβ6 = system: integrin αvβ6; parameters: method as in PMID 29674419; conditions: comparison in words; ref [16]

In the case of “GRGDLGRL [SFLAP3, SFTI-based peptide containing latency-associated peptide (GRGDLGRL)]”, the “SUVmax, lymph node metastases” value [1] is given as 4.1, the “SUVmax, primary tumor” value [1] is given as 5.1 and the “affinity to integrin αvβ6 relative to SFITGv6” value (integrin αvβ6) is given as “better affinity”.
